Results: the CheMixHub viscosity set
Several values for one entry are separate records, joined by “and”; a condition that tells them apart may be missing. Equal entries are not always repeated. ± gives the uncertainty stated by the source. Each block holds one molecule with its values, some of them ahead of it.

viscosity (298.15 K, 101 kPa): 0.8768 ± 0.019 mPa·s
viscosity (303.15 K, 101 kPa): 0.8077 ± 0.017 mPa·s
viscosity (308.15 K, 101 kPa): 0.7483 ± 0.016 mPa·s
viscosity (313.15 K, 101 kPa): 0.7012 ± 0.015 mPa·s
viscosity (318.15 K, 101 kPa): 0.6639 ± 0.014 mPa·s
SMILES: C=C(C)C(=O)OCCCC

viscosity (298.15 K, 101 kPa): 6.93 ± 0.084 mPa·s
SMILES: C=CCc1ccc(O)c(OC)c1

viscosity (313.15 K, 101 kPa): 2.45 ± 0.03 mPa·s
viscosity (318.15 K, 101 kPa): 2.23 ± 0.02 mPa·s
viscosity (323.15 K, 101 kPa): 2.06 ± 0.02 mPa·s
SMILES: CC(C)(C)C(=O)O

viscosity (298.15 K, 101 kPa): 804 ± 50 mPa·s
viscosity (303.15 K, 101 kPa): 560 ± 32 mPa·s
viscosity (308.15 K, 101 kPa): 408 ± 21 mPa·s
viscosity (313.15 K, 101 kPa): 306 ± 15 mPa·s
viscosity (318.15 K, 101 kPa): 227 ± 10 mPa·s
viscosity (323.15 K, 101 kPa): 177 ± 7 mPa·s
SMILES: CC(CC(C)(C)C)CP(=O)([O-])CC(C)CC(C)(C)C.CCCCCCCC[P+](C)(C)C (centres undefined)

viscosity (313.15 K, 101 kPa): 8.33 ± 0.07 mPa·s
SMILES: CCCCCCCCCCCCCCCCCCCc1ccccc1

viscosity (293.15 K, 101.33 kPa): 16.95 ± 0.39 mPa·s
viscosity (298.15 K, 101.33 kPa): 13.83 ± 0.32 mPa·s
SMILES: CCCCCCCCCCCO

viscosity (293.15 K, 102 kPa): 3.14 ± 0.03 mPa·s
viscosity (303.15 K, 102 kPa): 2.51 ± 0.03 mPa·s
viscosity (313.15 K, 100 kPa): 2.094 ± 0.043 mPa·s
viscosity (313.15 K, 102 kPa): 2.05 ± 0.03 mPa·s
viscosity (323.15 K, 102 kPa): 1.72 ± 0.03 mPa·s
SMILES: CCCCCCCCCc1ccccc1

viscosity (318.15 K, 101 kPa): 264.5 ± 59 mPa·s
SMILES: CCCC[N+]1(C)CCCCC1.N#C[S-]

viscosity (303.15 K, 101 kPa): 1.867 ± 0.011 mPa·s
SMILES: CCOC(=O)CCBr

viscosity (298.15 K, 101 kPa): 1.87 ± 0.04 mPa·s
viscosity (313.15 K, 101 kPa): 1.302 ± 0.028 mPa·s
SMILES: CN1CCNCC1

viscosity (293.15 K, 101.3 kPa): 21.4 ± 0.6 mPa·s and 21.62 ± 0.88 mPa·s
viscosity (293.15 K, 101.32 kPa): 19.2 ± 1.3 mPa·s
viscosity (297.85 K, 101 kPa): 17.7 ± 0.2 mPa·s
viscosity (298.15 K, 100 kPa): 17.7 ± 3.5 mPa·s and 17.87 ± 0.093 mPa·s
viscosity (298.15 K, 101.3 kPa): 16.1 ± 2 mPa·s
viscosity (298.15 K, 101.33 kPa): 15.31 ± 1.6 mPa·s
viscosity (302.85 K, 101 kPa): 14.4 ± 0.16 mPa·s
viscosity (303 K, 101 kPa): 15 ± 0.5 mPa·s
viscosity (303.15 K, 101.33 kPa): 12.24 ± 1.3 mPa·s
viscosity (307.85 K, 101 kPa): 11.92 ± 0.13 mPa·s
viscosity (308.15 K, 100 kPa): 11.07 ± 0.074 mPa·s
viscosity (308.15 K, 101.33 kPa): 9.945 ± 1.1 mPa·s
viscosity (312.95 K, 101 kPa): 9.95 ± 0.11 mPa·s
viscosity (313.15 K, 101.3 kPa): 9.53 ± 0.39 mPa·s
viscosity (313.15 K, 101.32 kPa): 8.45 ± 0.58 mPa·s
viscosity (313.15 K, 101.33 kPa): 9.17 ± 0.29 mPa·s and 9.535 ± 1 mPa·s
viscosity (317.75 K, 101 kPa): 8.44 ± 0.09 mPa·s
viscosity (318.15 K, 101.3 kPa): 8.08 ± 0.33 mPa·s
viscosity (318.15 K, 101.33 kPa): 7.68 ± 0.25 mPa·s
viscosity (322.75 K, 101 kPa): 7.19 ± 0.07 mPa·s
viscosity (323.15 K, 101.3 kPa): 6.96 ± 0.18 mPa·s and 6.91 ± 0.28 mPa·s
SMILES: OCCO
viscosity (308.15 K, 101 kPa): 10.97 ± 0.81 mPa·s and 12 ± 0.32 mPa·s and 11.66 ± 0.23 mPa·s
viscosity (318.15 K, 100 kPa): 9.59 ± 0.09 mPa·s and 7.888 ± 3 mPa·s and 8.126 ± 0.06 mPa·s

Continued, molecule first:

SMILES: C=CCN=C=S
viscosity (298.15 K, 101 kPa): 0.662 ± 0.018 mPa·s
viscosity (303.15 K, 101 kPa): 0.671 ± 0.018 mPa·s
viscosity (313.15 K, 100 kPa): 0.592 ± 0.005 mPa·s
viscosity (323.15 K, 101 kPa): 0.526 ± 0.014 mPa·s

SMILES: CC(=O)[O-].CC[NH2+]CC
viscosity (303.15 K, 101 kPa): 13.64 ± 0.28 mPa·s and 13.64 ± 0.35 mPa·s
viscosity (308.15 K, 101 kPa): 11.83 ± 0.24 mPa·s and 11.83 ± 0.3 mPa·s
viscosity (313.15 K, 101 kPa): 10.02 ± 0.21 mPa·s

SMILES: CC(C)NC(C)C
viscosity (298.15 K, 100 kPa): 0.38 ± 0.02 mPa·s and 0.382 ± 0.012 mPa·s
viscosity (298.15 K, 101 kPa): 0.382 ± 0.06 mPa·s
viscosity (303.15 K, 100 kPa): 0.36 ± 0.02 mPa·s and 0.364 ± 0.011 mPa·s
viscosity (303.15 K, 101 kPa): 0.364 ± 0.06 mPa·s
viscosity (308.15 K, 100 kPa): 0.35 ± 0.02 mPa·s and 0.347 ± 0.011 mPa·s
viscosity (308.15 K, 101 kPa): 0.347 ± 0.06 mPa·s and 0.3089 ± 0.01 mPa·s

SMILES: CCC(=O)c1ccccc1
viscosity (303.15 K, 100 kPa): 1.51 ± 0.02 mPa·s
viscosity (303.15 K, 101 kPa): 1.51 ± 0.02 mPa·s and 1.515 ± 0.063 mPa·s and 1.622 ± 0.037 mPa·s
viscosity (313.15 K, 101 kPa): 1.423 ± 0.059 mPa·s and 1.449 ± 0.033 mPa·s
viscosity (318.15 K, 101 kPa): 1.377 ± 0.057 mPa·s

SMILES: CCCC[N+]1(C)CCCC1.N#C[C-](C#N)C#N
viscosity (308.15 K, 101 kPa): 20.56 ± 1.2 mPa·s
viscosity (318.15 K, 101 kPa): 15.44 ± 0.94 mPa·s

SMILES: NCc1ccccc1
viscosity (303.15 K, 100 kPa): 1.497 ± 0.035 mPa·s
viscosity (303.15 K, 101 kPa): 1.415 ± 0.03 mPa·s
viscosity (313.15 K, 100 kPa): 1.262 ± 0.03 mPa·s
viscosity (323.15 K, 100 kPa): 1.071 ± 0.025 mPa·s

SMILES: O=CN1CCOCC1
viscosity (298.15 K, 101 kPa): 7.656 ± 0.15 mPa·s
viscosity (298.15 K, 101.3 kPa): 7.613 ± 0.052 mPa·s
viscosity (303.15 K, 101 kPa): 6.626 ± 0.18 mPa·s and 6.598 ± 0.13 mPa·s
viscosity (308.15 K, 101 kPa): 5.731 ± 0.16 mPa·s
viscosity (313.15 K, 101 kPa): 5.141 ± 0.14 mPa·s and 5.068 ± 0.11 mPa·s
viscosity (323.15 K, 101 kPa): 4.036 ± 0.089 mPa·s
